Source: US6683103B2, “Sulfonamides for treatment of endothelin-mediated disorders” (Texas Biotechnology Corporation, priority 1997, dated 2004)

Assays:
[1] = system: ET-1-induced pressor response; assay: ET-1-induced pressor responses in conscious, autonomically blocked rats; format: in vivo, rat; conditions: in 30 min at dosages as low as 30 mg/kg
Experimental: Animals were placed in a restrainer and allowed to regain consciousness. Thirty minutes later autonomic blockade was administered (atropine methyl nitrate, 3 mg/kg, IV, followed by propranalol, 2 mg/kg, IV). An hour later animals received a bolus injection of vehicle (0.5 ml) followed thirty minutes later by intravenous bolus administration of ET-1 (Control, 1 μg/kg). Following recovery from this challenge, test-compounds were administered by intravenous bolus administration (0.5 ml) and then re-challenged with ET-1 thirty minutes later. Results are expressed as the percent inhibition of the ET-1-induced pressor response after administration of the test compound compared to the pressor response induced by the control ET-1 challenge. In some cases a third ET-1 challenge was administered ninety minutes after administration of the test compound.

human ETA receptors = biological target: T1, human ETA receptors (Homo sapiens, UniProt P25101); assay: Binding Test #1: inhibition of 125I-ET-1 binding to ETA receptors (TE 671 cell membranes); conditions: Table 1; † incubation at 24° C.; read-out: ETA
T1 construct: endogenous in cells; host or cells: TE 671 cells (ATCC HTB 139)
T1 sequence (P25101 21-427): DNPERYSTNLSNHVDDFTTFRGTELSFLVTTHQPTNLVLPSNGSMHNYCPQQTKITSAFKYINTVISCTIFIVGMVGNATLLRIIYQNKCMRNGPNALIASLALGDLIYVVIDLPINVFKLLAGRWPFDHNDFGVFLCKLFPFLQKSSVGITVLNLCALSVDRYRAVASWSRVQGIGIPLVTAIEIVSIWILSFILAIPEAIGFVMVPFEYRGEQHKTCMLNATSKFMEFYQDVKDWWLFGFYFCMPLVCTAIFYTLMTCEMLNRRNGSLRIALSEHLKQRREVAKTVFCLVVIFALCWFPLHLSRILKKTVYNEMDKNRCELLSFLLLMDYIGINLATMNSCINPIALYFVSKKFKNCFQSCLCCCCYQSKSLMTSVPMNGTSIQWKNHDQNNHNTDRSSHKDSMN
Procedure, shortened: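 Radioligand competition in triplicate: ¹²⁵I-endothelin-1 displaced by test compound (1 nM–100 μM final) from ETA-bearing TE 671 cell membranes in HEPES pH 7.4 binding buffer with NaCl, MgCl2 and bacitracin. Incubation 16–18 h at 4 °C (or at 24 °C); 80 nM ET-1 defines nonspecific binding; pellet radioactivity gives percent inhibition.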

## Cc1noc(NS(=O)(=O)c2ccsc2C(=O)Cc2ccc3c(c2)OCO3)c1Cl [N-(4-chloro-3-methyl-5-isoxazolyl)-2-[(3,4-(methylenedioxy)phenylacetyl]thiophene-3-sulfonamide]
[1]
  reduction of pressure: about 30%
Human ETA receptors
  IC50: 21 nM

## Cc1cc2c(cc1CC(=O)c1sccc1S(=O)(=O)Nc1onc(C)c1Cl)OCO2 [N-(4-chloro-3-methyl-5-isoxazolyl)-2-[2-methyl-4,5-(methylenedioxy)phenylacetyl]thiophene-3-sulfonamide]
[1]
  reduction of pressure: about 30%
Human ETA receptors
  IC50: 3.2 nM
